The values that follow come from patent publication US20200046671A1, “APOBEC3B MUTAGENESIS AND IMMUNOTHERAPY” (Regents of the University of Minnesota, priority 2015, published 2020).

“Also recorded” adds a separate entry of the source. Peptide text beside a SMILES is read from it. * marks the point of attachment. Cbz = O=C(OCc1ccccc1)*

Type in all cases: cell-based, human
The subject of data set [1] is PMA-induced APOBEC3B upregulation. The experiment in a line: Inhibitor pretreatment before PMA induction of APOBEC3B in MCF10A cells, RT-qPCR. The procedure:
PMA is a well-known agonist of PKC, but it also affects other cellular processes. To determine whether APOBEC3B induction by PMA occurs through PKC signal transduction or an alternative mechanism, a panel of existing PKC inhibitors that vary with respect to class selectivity were analyzed. MCF10A cells were pre-treated for 30 minutes with varying concentrations of the pan-PKC inhibitor G66983 (Gschwendt et al., FEBS Lett. 392(2):77-80, 1996) and then treated for six hours with PMA (25 ng/mL). […] As additional controls, MCF10A cells were pretreated in parallel with the phosphoinositol 3 kinase (PI3K) inhibitor, LY294002, and the mitogen-activated protein kinase kinase (MEK) inhibitor, U0126, prior to PMA induction (FIGS. 2B and 2C).
(§1) For induction experiments, 2.5×10^5 cells were plated in a 6-well plate 1 day prior to drug treatment. PMA was then added to the media and incubated at 37° C. with 5% CO2 for six hours unless otherwise indicated. Cells were harvested, RNA was extracted, and RT-qPCR was performed as previously reported (Refsland et al. 2010, Nucleic Acids Res 38:4274-4284). For experiments utilizing inhibitors, cells were pretreated with inhibitors 30 minutes prior to PMA induction (25 ng/mL). PMA (Thermo Fisher Scientific, Inc., Waltham, Mass.), cyclohexamide (Acros Organics, Thermo Fisher Scientific, Inc., Waltham, Mass.), G66983 (Cayman Chemical co., Ann Arbor, Mich.), LY294002 (EMD Chemicals, Merck KGaA, Darmstadt, Germany), U0126 (EMD Chemicals, Merck KGaA, Darmstadt, Germany), AEB071 (Medchemexpress, Monmouth Junction, N.J.), Go6976 (Enzo Life Sciences, Inc., Farmingdale, N.Y.), BAY 11-7082 (R&D Systems, INc., Minneapolis, Minn.), and MG132 (Thermo Fisher Scientific, Inc., Waltham, Mass.) were stored as recommended. NIKi/Compound 31 was synthesized as described (Li et al., 2013, Bioorganic & Medicinal Chemistry Letters 23:1238-1244).
In general terms: Quantitative PCR measures a nucleic acid by following its amplification.

Data set [2] concerns APOBEC3B. Nature of the data set: Endogenous APOBEC3B expression in cancer cell lines treated with PKC inhibitor. As to conditions: 10 μM, 48 hours; breast, ovarian, bladder and head/neck cancer cell lines. The method, then:
Four breast cancer cell lines, four ovarian cancer cell lines, four bladder cancer cell lines, and four head/neck cancer cell lines were analyzed to determine whether the constitutively high levels of endogenous APOBEC3B observed in many human cancer cell lines occurs through the PKC pathway. The selected cell lines expressed a 10-fold range of endogenous APOBEC3B mRNA levels (FIG. 4A).
(§2) Each line was treated for 48 hours with 10 μM AEB071, and then APOBEC3B mRNA and protein levels were quantified by RT-qPCR and immunoblotting. As above, no effects on the cell cycle or cell viability were observed (data not shown). This is important since higher concentrations of AEB071 are known to cause cell cycle perturbations and apoptosis in certain cell types. APOBEC3B mRNA levels were reduced by more than half in 7/16 cell lines, including the breast cancer cell lines MDA-MB-468, MDA-MB-453, and HCC1806, the ovarian cancer cell line OVCAR5, and the head/neck lines SQ-20B, JSQ3, and TR146 (FIG. 4B, histogram). Changes of protein levels largely mirrored the mRNA results (FIG. 4B, immunoblot).

Another data set deals with cancer cell lines. Nature of the data set: Cell cycle and viability of AEB071-treated cancer cell lines. Conditions: 10 μM, 48 hours, data not shown. The method, then:
as §2

The test system of another data set is MCF10A cells. The experiment in a line: Morphology and viability of inhibitor-treated MCF10A cells. As to conditions: low concentrations used (5 μM and around), data not shown. The method, then: PMA is a well-known agonist of PKC, but it also affects other cellular processes. To determine whether APOBEC3B induction by PMA occurs through PKC signal transduction or an alternative mechanism, a panel of existing PKC inhibitors that vary with respect to class selectivity were analyzed. MCF10A cells were pre-treated for 30 minutes with varying concentrations of the pan-PKC inhibitor G66983 (Gschwendt et al., FEBS Lett. 392(2):77-80, 1996) and then treated for six hours with PMA (25 ng/mL). […] APOBEC3B was suppressed to background levels with 5 μM G66983, as well as higher concentrations (FIG. 2A). […] As additional controls, MCF10A cells were pretreated in parallel with the phosphoinositol 3 kinase (PI3K) inhibitor, LY294002, and the mitogen-activated protein kinase kinase (MEK) inhibitor, U0126, prior to PMA induction (FIGS. 2B and 2C).

The test system of data set [3] is APOBEC3B. The experiment in a line: PMA induction of APOBEC3B mRNA in MCF10A cells, RT-qPCR. The method, then:
(§3) A panel of immortalized normal human epithelial cells lines and breast cancer cell lines was treated with the model PKC-NFκB pathway activator PMA (or equal amounts of DMSO as a negative control) and previously validated reverse transcription quantitative PCR (RT-qPCR) assays were used to measure mRNA levels of all eleven human APOBEC family members. APOBEC3B mRNA was induced specifically by PMA treatment of several lines including the immortalized normal breast epithelial cell line MCF10A (FIG. 6). Under standard cell culture conditions, MCF10A expresses low levels of APOBEC3B and APOBEC3F, even lower levels of APOBEC3G and APOBEC3H, high levels of APOBEC3C, and undetectable levels of all other APOBEC family members.
as §1

The next data set concerns PKCα (PRKCA). The experiment in a line: RNA sequencing of PMA-treated MCF10A cells, PKC isoforms. As to conditions: RNAseq, in comparison to DMSO. The method, then:
(§4) Two sets of MCF10A cells in duplicate were treated every eight hours with media supplemented with PMA or DMSO for 48 hours. At 48 hours, RNA was extracted using an RNeasy Mini Kit (Qiagen, Hilden, Germany). Total RNA was submitted to the University of Minnesota Genomics Center for sequencing on the Illumina HiSeq 2000 platform. Raw reads were analyzed using both DESeq2 (Love et al., 2014, Genome Biol. 15:550) and the Tuxedo suite (Trapnell et al., 2012, Nat Protoc. 7:562-578) to identify changes in mRNA expression in PMA treated versus untreated cells.

The next data set has as its system APOBEC3B promoter region. Nature of the data set: Chromatin immunoprecipitation after PMA treatment of MCF10A cells. Conditions: PMA for two hours, ChIP-qPCR. The procedure: Next, a series of chromatin immunoprecipitation (ChIP) experiments were performed to determine whether the canonical or noncanonical NFκB pathway is responsible for upregulating APOBEC3B. Primer sets were designed for each of the predicted NFκB binding sites near the APOBEC3B transcriptional start site, as well as a control set in the promoter region of NFKBIA (FIG. 3E). ChIP was performed for RELA, RELB, RNA POL II (positive control), and isotype matched IgG (negative control). RELA, RELB, and RNA POL II were all bound to the NFKBIA promoter following PMA treatment (FIG. 3F). In addition, RNA POL II strongly bound to the APOBEC3B gene near the transcriptional start site (FIG. 3F). Also, RELB bound both near the transcriptional start site and at sites 4 and 5, which are located in intron 2 and too close together to be distinguished by this procedure. Binding also may occur at lower levels at site 3 in intron 1, but the IgG signal was too high to distinguish background from actual binding. These ChIP data strongly implicate the noncanonical NFκB pathway, specifically RELB (and not RELA), in directly inducing APOBEC3B transcription in response to PMA activation of PKC.
MCF10A cells were treated with either DMSO or 25 ng/mL PMA for two hours. Cross-linking was performed with 1% formaldehyde for 10 minutes at room temperature and quenched with 150 mM glycine. […]

Data set [4] concerns RELA, NFKB1, RELB and NFKB2. Nature of the data set: RNA sequencing of PMA-treated MCF10A cells, NFκB components. As to conditions: RNAseq. The procedure: as §4
The next data set relates to APOBEC family members. Nature of the data set: mRNA levels of the other APOBEC family members after PMA treatment, RT-qPCR. Conditions: MCF10A cells. The method, then:
as §3
For induction experiments, 2.5×10^5 cells were plated in a 6-well plate 1 day prior to drug treatment. PMA was then added to the media and incubated at 37° C. with 5% CO2 for six hours unless otherwise indicated. Cells were harvested, RNA was extracted, and RT-qPCR was performed as previously reported (Refsland et al. 2010, Nucleic Acids Res 38:4274-4284). For experiments utilizing inhibitors, cells were pretreated with inhibitors 30 minutes prior to PMA induction (25 ng/mL). […]

Where [5] appears, read: 30-minute pretreatment, then PMA 25 ng/mL for six hours.

With `CN1CCN(c2nc(C3=C(c4c[nH]c5ccccc45)C(=O)NC3=O)c3ccccc3n2)CC1` [AEB071], the “potency relative to G66983 in suppressing APOBEC3B induction” value in [1] was “approximately 10 fold”. In data set [1] (setting [5]), the “effect on PMA-induced APOBEC3B induction” value is on record as “inhibited; also recorded: clear dose dependent suppression”. The “concentration causing complete suppression of APOBEC3B induction” value in data set [1] (pretreatment, then PMA) worked out at 500 nM. Also, the “cell lines in which APOBEC3B mRNA levels were reduced by more than half” value in the data set on APOBEC3B [2] was 7/16. In addition, the “effects on the cell cycle or cell viability” value in the data set with cancer cell lines was “no effects”.
With `Cc1ccc(S(=O)(=O)/C=C/C#N)cc1` [BAY 11-7082], the “effect on PMA-induced APOBEC3B induction” value in [1] (setting [5]) was “dose responsive inhibition; also recorded: strong dose-responsive drops”.
Still for that read-out and setting: the result for `CN(C)CCCn1cc(C2=C(c3c[nH]c4ccccc34)C(=O)NC2=O)c2ccccc21` [BIM-1] reads “inhibited”.
As to `COc1ccc2c(c1)c(C1=C(c3c[nH]c4ccccc34)C(=O)NC1=O)cn2CCCN(C)C` [G66983], in data set [1] (setting [5]), the “concentration at which APOBEC3B was suppressed to background levels” value stood at 5 µM and the “effect on PMA-induced APOBEC3B induction” value is on record as “dose responsive suppression”. Also, the “effect on PMA-induced APOBEC3B induction” value in [1] (30-minute pretreatment, then PMA 25 ng/mL for six hours, listed as Go6983) is recorded as “inhibited”. For the same compound, in the data set on MCF10A cells, the “morphological defects or viability issues” value is listed as “No morphological defects or viability issues”.
Take `Cn1c2ccccc2c2c3c(c4c5ccccc5n(CCC#N)c4c21)CNC3=O` [Go6976]: the “effect on PMA-induced APOBEC3B induction” value in data set [1] (setting [5]) is “inhibited”.
Still for that read-out and setting: the result for `CC(C)C[C@@H](C=O)NC(=O)[C@H](CC(C)C)NC(=O)[C@H](CC(C)C)NC(=O)OCc1ccccc1` [MG132] (Cbz-Leu-Leu-Leu-aldehyde) reads “dose responsive inhibition; also recorded: decreased in a dose dependent manner”.
On to `CCCCCCCCCCCCCC(=O)O[C@@H]1[C@@H](C)[C@@]2(O)[C@@H](C=C(CO)C[C@]3(O)C(=O)C(C)=C[C@@H]23)[C@@H]2C(C)(C)[C@]12OC(C)=O` [PMA, phorbol 12-myristate 13-acetate], for which, in the data set with APOBEC3B [3] (PMA 25 ng/ml), the “time after treatment at which significant APOBEC3B mRNA induction was detected” value came out at 30 min and the “time post-treatment by which maximal APOBEC3B mRNA levels were observed” value is listed as “three”. For the same compound, in the data set on APOBEC3B [3] (dose response), the “PMA concentration at which APOBEC3B induction was near maximal” value was determined as 25 ng/mL and the “lowest PMA concentration that induced APOBEC3B” value was 1 ng/mL. The “PKCα mRNA levels after PMA treatment” value in the data set on PKCα (PRKCA) is given as “unchanged”. Besides, the “recruitment of RELB and p105/p52 to the APOBEC3B promoter region” value in the data set with APOBEC3B promoter region was “specifically and robustly recruited”. In addition, in data set [4], the “expression levels of canonical and noncanonical NFκB components after PMA treatment” value is on record as “unaffected”. In the data set with APOBEC family members, the “changes in expression levels of other APOBEC family members” value was “no detectable changes”.
On to `NC(=O)Nc1sc(-c2ccc(F)cc2)cc1C(N)=O` [TPCA-1], for which the “effect on PMA-induced APOBEC3B induction” value in data set [1] (setting [5]) is “near the IC50 for IKKα, not IKKβ”.
On to `N#CC(=C(/N)Sc1ccccc1N)/C(C#N)=C(\N)Sc1ccccc1N` [U0126], for which the “effect on PMA-induced APOBEC3B induction” value is reported as “no suppression” in data set [1] (setting [5]) and “not” in [1] (30-minute pretreatment, then PMA 25 ng/mL for six hours, listed as UO126).
Regarding `C[C@@H]1C[C@@H]([C@H](O)CC2CC(=O)NC(=O)C2)C(=O)[C@@H](C)C1` [cyclohexamide], in data set [1] (30-minute pretreatment with 10 μg/mL cyclohexamide), the “effect on kinetics of APOBEC3B upregulation by PMA” value is recorded as “not affected”.
